Results from US20150239831A1, “INHIBITORS OF CENTRAL NERVOUS SYSTEM VASOACTIVE INHIBITORY PEPTIDE RECEPTOR 2” (The Trustees Of Columbia University In The City Of New York, priority 2012, published 2015).

Legend:
Format in all cases: cell-based
Parameters in all cases: expressed in transfected cells; host or cells: HEK293 cells transfected with VIPR2 in pCDNA3.1 (as described)
VIPR2 [1] = target: T1, VIPR2 (Homo sapiens, UniProt P41587); assay: Inhibition of VIP-induced cAMP elevation (% Activity cAMP); settings: Batch 1
T1 sequence (P41587 24-438): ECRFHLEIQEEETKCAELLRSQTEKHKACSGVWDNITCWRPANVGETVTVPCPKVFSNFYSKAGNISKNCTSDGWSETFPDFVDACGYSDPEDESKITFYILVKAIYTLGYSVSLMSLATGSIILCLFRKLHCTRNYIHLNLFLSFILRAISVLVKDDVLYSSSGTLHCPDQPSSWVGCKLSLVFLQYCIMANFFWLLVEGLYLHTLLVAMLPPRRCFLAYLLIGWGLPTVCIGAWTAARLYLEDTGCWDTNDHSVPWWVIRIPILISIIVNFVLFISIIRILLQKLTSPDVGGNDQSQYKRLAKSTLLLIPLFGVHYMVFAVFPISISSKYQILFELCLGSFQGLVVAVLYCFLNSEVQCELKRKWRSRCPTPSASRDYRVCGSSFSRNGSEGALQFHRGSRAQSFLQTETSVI
How it was run: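 HEK293 cells stably transfected with human VIPR2 were incubated with inhibitor and VIP for 30 min, then cAMP was detected by HTRF after at least 1 h at room temperature. The 665/620 nm ratio ×10,000 was calculated.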

VIPR2 [2] = target: T1, VIPR2; assay: % Activity: inhibition of VIP-induced cAMP elevation and β-arrestin recruitment (Table 2)
How it was run: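 Recruitment of β-arrestin measured by β-gal fragment complementation luminescence in HEK293 cells co-expressing VIPR2-ProLink and β-arrestin2-EA after 2 h compound at 37° C. VIP-driven cAMP rise in stable hVIPR2 HEK293 cells measured by HTRF after 30 min with inhibitor and VIP.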

VIPR2 [3] = target: T1, VIPR2; assay: Inhibition of VIP-induced β-arrestin recruitment (% Activity Arrestin); settings: Batch 1
How it was run: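 Read-out is β-gal fragment complementation (luminescence) between ProLink-hVIPR2 and EA-β-arrestin2 in transiently transfected HEK293 cells. Cells rested overnight, then exposed to inhibitor 2 h at 37 °C before detection reagent (5 min–1 h, room temperature); values are % activity against VIP-driven recruitment.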

Row | Structure (SMILES) | inhibition at 0.5 µM (VIPR2 [1]) [%] | inhibition at 1 µM (VIPR2 [1]) [%] | inhibition at 5 µM (VIPR2 [1]) [%] | % Activity (VIPR2 [2]) [%] | inhibition at 0.5 µM (VIPR2 [3]) [%] | inhibition at 1 µM (VIPR2 [3]) [%] | inhibition at 5 µM (VIPR2 [3]) [%]
1 | N#Cc1ccc(S(=O)(=O)NC[C@@H](O)C[C@@H](Cc2ccccc2)C(=O)N[C@H]2c3ccccc3C[C@H]2O)cc1 [C] | 27.3 | 43.6 | 93.1 | 91.75 | 38.5 | 59.5 | 90.4
2 | CC(C)c1ccc(S(=O)(=O)NC[C@@H](O)C[C@@H](Cc2ccccc2)C(=O)N[C@H]2c3ccccc3C[C@H]2O)cc1 [Compound A10] | 36.5 | 44.2 | 98.2 | 92.95 | 31.5 | 63.1 | 87.7
3 | COc1ccc(S(=O)(=O)NC[C@@H](O)C[C@@H](Cc2ccccc2)C(=O)N[C@H]2c3ccccc3C[C@H]2O)cc1 [E] | 33.9 | 45.9 | 93.8 | 91.6 | 54.1 | 76.7 | 89.4
4 | O=C(N[C@H]1c2ccccc2C[C@H]1O)[C@H](Cc1ccccc1)C[C@H](O)CNS(=O)(=O)c1ccc(C(F)(F)F)cc1 [F] | 42 | 63.1 | 98.5 | 95.7 | 58.1 | 83 | 92.9
5 | Cc1ccc(S(=O)(=O)NC[C@@H](O)C[C@@H](Cc2ccccc2)C(=O)N[C@H]2c3ccccc3C[C@H]2O)cc1 [I] | 42.2 | 63.5 | 98.2 | 94.1 | 62.8 | 80.4 | 90
6 | CC(=O)c1ccc(S(=O)(=O)NC[C@@H](O)C[C@@H](Cc2ccccc2)C(=O)N[C@H]2c3ccccc3C[C@H]2O)cc1 [K] | 38.6 | 61.1 | 96 | 92.35 | 58.3 | 78 | 88.7
